pIC50: −log10 of the molar value.
tested on: GDF8 signaling (p-SMAD-3 (Ser423/425)); assay: AlphaScreen SureFire SMAD3 (p-Ser423/425) assay, GDF8-stimulated cells (GDF pSMAD); format: cell-based; settings: MPC11; GDF8-stimulated; p-SMAD3 AlphaScreen; read-out: GDF pSMAD (MPC11) (inhibition of GDF8 signaling)

| SMILES | pIC50 |
| --- | --- |
| Nc1ncnc2ccc(-c3cccnc3-c3ccc(F)c(Cl)c3)cc12 [compound 448, 6-(2-(3-Chloro-4-fluorophenyl)pyridin-3-yl)quinazolin-4-amine] | 6.86 |

same assay, conditions: Mus musculus, MPC-11, GDF8-stimulated pSMAD3, MPC11; tested as the salt form given; read-out: GDF pSMAD (MPC11) (μM), inhibition of GDF8 signaling

| SMILES | IC50 |
| --- | --- |
| Nc1ncnc2ccc(-c3cccnc3-c3ccc4occc4c3)cc12 [compound 1083] | 0.309 µM |
| Cc1cc(F)c(Cl)cc1-c1ncccc1-c1ccc2ncnc(N)c2c1 [compound 989, 6-(2-(5-chloro-4-fluoro-2-methylphenyl)pyridin-3-yl)quinazolin-4-amine] | 0.692 µM |

same assay, conditions: Mus musculus, MPC-11, MPC11; GDF8-stimulated; p-SMAD3 AlphaScreen; read-out: GDF pSMAD (MPC11) (inhibition of GDF8 signaling)

| SMILES | pIC50 |
| --- | --- |
| Cc1cc(-c2ncccc2-c2ccc3ncnc(Nc4ccc(C(N)=O)cc4)c3c2)ccc1F [compound 406, 4-((6-(2-(4-Fluoro-3-methylphenyl)pyridin-3-yl)quinazolin-4-yl)amino)benzamide] | 5.55 |
| Cn1cnc2ccc(-c3cccnc3-c3cccc(C4CC4)c3)cc21 [Compound 200, 6-(2-(3-Cyclopropylphenyl)pyridin-3-yl)-1-methyl-1H-benzo[d]imidazole] | 6.58 |
| Fc1ccc(-c2ncccc2-c2ccn3ncnc3c2)cc1Cl [compound 733, 7-(2-(3-Chloro-4-fluorophenyl)pyridin-3-yl)-[1,2,4]triazolo[1,5-a]pyridine] | 5.90 |
| NC(=O)c1cnc2ccc(-c3cccnc3-c3ccc(F)c(Cl)c3)cn12 [compound 843, 6-(2-(3-Chloro-4-fluorophenyl)pyridin-3-yl)imidazo[1,2-a]pyridine-3-carboxamide] | 7.67 |
| Cc1cc(-c2ncc(NCc3cccnc3)cc2-c2ccc3ncsc3c2)ccc1F [compound 306, 5-(Benzo[d]thiazol-6-yl)-6-(4-fluoro-3-methylphenyl)-N-(pyridin-3-ylmethyl)pyridin-3-amine] | 6.89 |
| Fc1cc(F)c(-c2ncccc2-c2ccc3nccn3c2)cc1F [compound 694, 6-(2-(2,4,5-Trifluorophenyl)pyridin-3-yl)imidazo[1,2-a]pyridine] | 6.10 |
| N#Cc1cccc(-c2ncccc2-c2ccc3ncc(C#N)n3c2)c1 [compound 627, 6-(2-(3-Cyanophenyl)pyridin-3-yl)imidazo[1,2-a]pyridine-3-carbonitrile] | 5.90 |
| O=c1nc[nH]c2ccc(-c3cccnc3-c3ccc(F)c(Cl)c3)cc12 [compound 388, 6-(2-(3-Chloro-4-fluorophenyl)pyridin-3-yl)quinazolin-4(1H)-one] | 6.26 |
| Cc1cc(-c2ncccc2-c2ccn3ncc(C(=O)NCCN)c3c2)ccc1F [compound 683, N-(2-Aminoethyl)-5-(2-(4-fluoro-3-methylphenyl)pyridin-3-yl)pyrazolo[1,5-a]pyridine-3-carboxamide] | 6.63 |
| Cc1cc(-c2ncccc2-c2ccn3ncc(C(=O)N[C@@H]4CCCC[C@H]4N)c3c2)ccc1F [compound 663, N-((1R,2R)-2-Aminocyclohexyl)-5-(2-(4-fluoro-3-methylphenyl)pyridin-3-yl)pyrazolo[1,5-a]pyridine-3-carboxamide] | 5.09 |
